What was measured:
[1] = system: human peritoneal mesothelial cell (HPMC); assay: HPMC proliferation, Alamar Blue and MTT assay; assay type: cell-based; settings: 48 hours and 72 hours; over the tested concentrations in supplemented M199
Procedure: The effect of a phospholipid prepared as described in Example 1 (and/or its constituent compounds) to induce human peritoneal mesothelial cell proliferation was assessed using an Alamar Blue™ assay and an MTT assay.
The Alamar Blue™ assay is designed to measure the proliferation of various cell types by measuring the ability of the cells to metabolise and reduce a REDOX indicator (Alamar Blue™). Reduction of the REDOX indicator results in a change in its fluorescent activity. Therefore the fluorescent activity measured is proportional to cell proliferation.
The MTT Assay measures the proliferations of various cells and is based on the mitochondrial conversion of tetrazolium salt 3-[4,5-dimethyl-thiazol-2-yl]-2,5-diphenyltetrazium bromide (MTT), into an insoluble formazan salt. The resultant colour change is directly related to the number of viable cells.
As described in Morgan L W et al (“Glucose degradation products (GDP) retard re-mesothelialisation independently of D-glucose concentration.” Kidney Int 64:1854-1866, 2003), primary HPMC are isolated from omental tissue biopsies donated by consenting patients undergoing elective abdominal surgery. Cells were grown to approximately 60% confluence in 96 well plates (Falcon) and used at passage 2. All cells were growth arrested in serum free M199 for 24 hours prior to use.
The supplemented M199 medium was prepared as follows. Earle's salt medium M199 was supplemented with 100μ/ml penicillin, 100 μg/ml streptomycin, 2 mM glutamine, 5 μg/ml insulin, 5 μg/ml transferrin and 0.4 μg/ml hydrocortisone and 2 mmol/L N-2-hydroxyethylpiperazine-N′-2ethanesulfonic acid.
The phospholipid prepared as described in Example 1 was prepared as follows. […]
The growth medium was aspirated from each well and then the well was washed once using 200 μl per well of supplemented M199. […] The fluorescent activity of Alamar Blue™ at 540 nm (wavelength) was measured using a Dynex Revalation 96-multiwell plate reader. […]

HPMC = HPMC ATP bioluminescence assay; assay type: cell-based, human; settings: 72 hours
Procedure: The viability of HPMC after stimulation with FCS, phospholipid prepared according to Example 1 (Vibrated and Non-vibrated), lysophosphatidic acid (LPA), DPPC, DPPC/LPA, POPC, Curosurf, egg-PG (EPG) and the three Intralipid™ products was determined using an ATP assay. This assay measures the light emitted during the ATP dependant oxidation of luciferin in order to accurately quantify the ATP concentration.
As described in Example 3, primary HPMC are isolated from omental tissue biopsies donated by consenting patients undergoing elective abdominal surgery. Cells are grown to approximately 60% confluence in 96 well plates (Falcon) and used at passage 2. All cells are growth arrested in serum free M199 for 24 hours prior to use.
An ATP Bioluminescence Assay Kit CLS II (Roche Diagnostics, Cat No 1 699 695, 11857300) was used. It contains ATP Standard, Luciferase and distilled water. A 10 mM EDTA solution was prepared by dissolving 1.8612 g EDTA (Fischer Scientific, Code D/0650/60, Batch 0447430, Mr-372.24) in 500 ml H2O (or 3.7224 g in 1 litre). A BAC-extract solution was prepared by dissolving 1 g Benzalkonium Chloride (Sigma-Aldrich, Cat:-23, 442-7, Lot S22104-334) in 1 litre of 10 mM EDTA. […]
To mix, rotate the bottle carefully. • 2) Make up an ATP standard solution having a base concentration of 1.65 μM ATP. […] Use distilled water as the control. • 4) Set the Fluostar Optima plate reader to measure luminescence. Set the Fluostar Optima plate reader pump to inject 20 μl of luciferase into each of the required wells. • 5) Place the plate into the plate reader and measure the relative light units (RLU). • 6) Prepare a standard curve such as that shown in FIG. 16 by plotting a graph of RLU against ATP concentration.
96 well plates from the HPMC proliferation study were defrosted. […] The ATP concentrations were calculated from the RLU of the samples using the standard curve. As an alternative to using an ATP standard curve, data can be normalised to the un-stimulated control and expressed as “ATP (% of control)”.

Compound	HPMC proliferation compared to the negative control [1]	HPMC proliferation by ATP assay compared to the negative control (HPMC; 0.0875 mg/ml, FIG. 11G)	HPMC proliferation by ATP assay (ATP % of control) compared to the negative control (HPMC; single well, over the tested concentrations)
CCCCCCCC/C=C\CCCCCCCC(=O)O[C@H](COC(=O)CCCCCCCCCCCCCCC)COP(=O)([O-])OCC[N+](C)(C)C [POPC, Palmitoyl oleoyl phosphatidyl choline]	no significant stimulation of HPMC proliferation	increased HPMC proliferation	
Lysophosphatidic acid [LPA]	no significant stimulation of HPMC proliferation		no increase of HPMC proliferation
